This note sets out measurements from patent US9663478B2, “Benzotriazine oxides as drugs targeting Mycobacterium tuberculosis” (priority 2011, dated 2017).

Converted amounts (≈) assume the structure as drawn.

One series in a line: in vitro. The settings on record: African green monkey, VERO Tox (CC50).
A further series relates to NRP Mtb H37Rv cells. Briefly: Low-oxygen recovery assay (LORA) MIC. Format: cell-based, Mycobacterium tuberculosis. The following applies: for LORA MIC: Tables P1, P2, non-replicating M. tuberculosis; for MIC: Mycobacterium tuberculosis, H37RV, NRP Mtb, Tables 1-4 and text, read-out: LORA MIC - ITR.
Series [1] concerns Mtb H37Rv. Briefly: TB MIC - ITR (UIC), Institute for Tuberculosis Research. Format: cell-based, Mycobacterium tuberculosis. The following applies: for TB MIC - UIC: Tables P1, P2; for MIC: Mycobacterium tuberculosis, H37RV, Tables 1-4, read-out: TB MIC - ITR.
The subject of series [2] is Mtb H37Rv. Briefly: TB MIC - SRI, resazurin-based microplate assay. The following applies: Mycobacterium tuberculosis, H37RV, read-out: TB MIC - SRI. Type of series: cell-based, Mycobacterium tuberculosis. In general terms: The colour change of resazurin is a common sign of viable cells or microbes.
The nature of series [3]: MP MTT % viable (Table E1). The following applies: MP (so in the source).
The subject of a further series is INH-r. Briefly: MIC INH-r (Table E1). Type of series: cell-based.
A further series concerns H37Rv. Briefly: MIC H37Rv (Table E1, Additional BTO Activity Data). Format: cell-based. The settings on record: Mycobacterium tuberculosis.
Another series concerns RMP-R. Kind of series: MIC RMP-R (Table E1). Type of series: cell-based.
Another series relates to OFX-R. Kind of series: MIC OFX-R (Table E1). Type of series: cell-based.
For the next series, the system named is Vero cells. Kind of series: Cytotoxicity against Vero cells (Cell Titer-Glo). The settings on record: 72 h; Tables 1-4 and text. A general note: ATP-based viability assays read luminescence as a measure of living cells.

The CC50 is the concentration at which the toxic effect on the cells reaches its halfway point. As a reminder, the MIC is the smallest concentration in the dilution series that meets the test's criterion for growth inhibition. In turn, `CC(Nc1n[n+]([O-])c2ccccc2[n+]1[O-])C(C)(C)C` (stereo not shown) [SRI-012268] had a cytotoxic concentration (CC50) at 72 h in the series “in vitro” of 20.2 mg/L (≈ 77 µM). In addition, the LORA MIC in the series on NRP Mtb H37Rv cells came to 1 mg/L. The compound further showed a TB MIC - UIC with Mtb H37Rv [1] of 2.43 mg/L. In addition, the MIC in the series on Mtb H37Rv [2] (Tables P1-P3) stood at 5 mg/L (≈ 19.1 µM).

Broadly, the viability is a read-out of living cells in per cent, often relative to untreated cells. As to `COc1ccc(CN(C)c2n[n+]([O-])c3cc4c(cc3[n+]2[O-])CCC4)cc1` [Cmpd 12], the viability at 0.01 ug/ml in series [3] was determined as 121%. Moreover, the viability at 0.1 ug/ml in series [3] came out at 94%. The viability at 1 ug/ml in series [3] amounted to 88%. Also, the MIC in the series on INH-r was found to be 0.098 mg/L (≈ 0.278 µM); in the series on H37Rv, 0.391 mg/L (≈ 1.11 µM); against RMP-R it was 0.098 mg/L (≈ 0.278 µM); against OFX-R, 0.195 mg/L (≈ 0.553 µM).

In the series with H37Rv, `CC1(C)CCc2cc3c(cc21)[n+]([O-])nc(N1CCCC1)[n+]3[O-]` [Cmpd 9] registered an MIC of 0.5 mg/L (≈ 1.66 µM).

As to `Nc1n[n+]([O-])c2ccccc2[n+]1[O-]` [TPZ, tirapazamine, reference compound], in the series with Vero cells, the “Vero Tox CC50” value is 8.0 mg/L. The MIC in the series with NRP Mtb H37Rv cells came out at 7.3 mg/L (≈ 41 µM); in the series on Mtb H37Rv [1] it was 3.7 mg/L (≈ 20.8 µM); in the series on Mtb H37Rv [2] (Tables 1-4 and text), 5 mg/L (≈ 28.1 µM).

Take `CN(c1n[n+]([O-])c2cc3c(cc2[n+]1[O-])CCC3)C1(c2ccc(F)cc2)CC1` [Cmpd 4]: the minimal inhibitory concentration (MIC) in the series with H37Rv is 4.6 mg/L (≈ 12.6 µM).

Take `CC(C)CC(C)Nc1n[n+]([O-])c2ccccc2[n+]1[O-]` (stereo not shown) [SRI-012263]: the midpoint of cytotoxicity in “in vitro”, the CC50 at 72 h, lay at 11.7 mg/L (≈ 44.6 µM). For the same compound, in the series with NRP Mtb H37Rv cells, the LORA MIC is 0.83 mg/L. The same compound showed a TB MIC - UIC in the series on Mtb H37Rv [1] of 1.98 mg/L. Further, the minimal inhibitory concentration (MIC) in the series with Mtb H37Rv [2] (Tables P1-P3) came to 2.5 mg/L (≈ 9.53 µM).

Compound `[O-][n+]1nc(NC2[C@H]3C[C@@H]4C[C@@H](C[C@H]2C4)C3)[n+]([O-])c2ccccc21` (stereo partly shown) [SRI-012269] displayed a CC50 at 72 h in the series “in vitro” of 7.3 mg/L (≈ 23.4 µM). Also, in the series on NRP Mtb H37Rv cells, the LORA MIC was found to be 2.33 mg/L. The compound also came in with a TB MIC - UIC in the series with Mtb H37Rv [1] of 1.91 mg/L. In the series with Mtb H37Rv [2] (Tables P1-P3), the MIC worked out at 2.5 mg/L (≈ 8 µM).

`[O-][n+]1nc(N[C@@H]2C[C@H]3CC[C@@H]2C3)[n+]([O-])c2ccccc21` (racemic) [SRI-012264] gave a CC50 at 72 h in “in vitro” of 3.4 mg/L (≈ 12.5 µM). The compound further yielded an LORA MIC with NRP Mtb H37Rv cells of 0.42 mg/L. The same compound registered a TB MIC - UIC in the series on Mtb H37Rv [1] of 0.6 mg/L. The MIC in the series with Mtb H37Rv [2] (Tables P1-P3) came to 0.625 mg/L (≈ 2.3 µM).

On to `CC(C)(C)C1CCC(Nc2n[n+]([O-])c3ccccc3[n+]2[O-])CC1` (stereo not shown) [SRI-012257], for which, in “in vitro”, the midpoint of cytotoxicity, the CC50 at 72 h, lay at 2.3 mg/L (≈ 7.27 µM). This compound had an LORA MIC in the series with NRP Mtb H37Rv cells of under 0.125 mg/L. The same compound gave a TB MIC - UIC in the series on Mtb H37Rv [1] of 0.22 mg/L. Also, the minimum inhibitory concentration (MIC) in the series with Mtb H37Rv [2] (Tables P1-P3) is 0.625 mg/L (≈ 1.98 µM).

In the case of `CCC(CC)Nc1n[n+]([O-])c2ccccc2[n+]1[O-]` [SRI-012271], in the series “in vitro”, it took 36.5 mg/L (≈ 147 µM) to reach half-maximal cytotoxicity (CC50 at 72 h). Besides, in the series on NRP Mtb H37Rv cells, the LORA MIC came out at 1.94 mg/L. Besides, the TB MIC - UIC in the series on Mtb H37Rv [1] is 3.63 mg/L. Further, the MIC in the series with Mtb H37Rv [2] (Tables P1-P3) worked out at 5 mg/L (≈ 20.1 µM).

In turn, `CC(C)CCC(C)Nc1n[n+]([O-])c2ccccc2[n+]1[O-]` (stereo not shown) [SRI-012259] came in with a CC50 at 72 h in the series “in vitro” of 4.1 mg/L (≈ 14.8 µM). Further, in the series on NRP Mtb H37Rv cells, the LORA MIC was found to be 0.38 mg/L. Moreover, the TB MIC - UIC with Mtb H37Rv [1] amounted to 0.52 mg/L. Moreover, the MIC in the series on Mtb H37Rv [2] (Tables P1-P3) was found to be 1.25 mg/L (≈ 4.52 µM).

`NNC(=O)c1ccncc1` [INH, Isoniazid, reference compound]: the “Vero Tox CC50” value in the series on Vero cells is over 50 mg/L. For the same compound, the MIC in the series with NRP Mtb H37Rv cells was over 20 mg/L; in the series on Mtb H37Rv [1], 0.091 mg/L (≈ 0.664 µM); with Mtb H37Rv [2] (Tables 1-4 and text), 0.06 mg/L (≈ 0.438 µM).

Turning to `CN(Cc1ccc(C(F)(F)F)cc1)c1n[n+]([O-])c2cc3c(cc2[n+]1[O-])CCC3` [Cmpd 11], the viability at 0.01 ug/ml in series [3] is 113%. The viability at 0.1 ug/ml in series [3] turned out to be 108%. The viability at 1 ug/ml in series [3] is 104%. The MIC against INH-r worked out at 0.195 mg/L (≈ 0.5 µM); against H37Rv it was 0.098 mg/L (≈ 0.251 µM); against RMP-R, 0.024 mg/L (≈ 0.0615 µM); in the series on OFX-R, 0.024 mg/L (≈ 0.0615 µM).

For the compound `COc1ccc(OC)c(C2CCN(c3n[n+]([O-])c4cc5c(cc4[n+]3[O-])CCC5)C2)c1` (stereo not shown) [Cmpd 16], the viability at 0.01 ug/ml in [3] turned out to be 122%. The viability at 0.1 ug/ml in series [3] amounted to 97%. Besides, in series [3], the viability at 1 ug/ml stood at 108%. In addition, the MIC was determined as 0.098 mg/L (≈ 0.24 µM) in the series on INH-r, 0.195 mg/L (≈ 0.477 µM) with H37Rv, 0.195 mg/L (≈ 0.477 µM) in the series on RMP-R and 0.098 mg/L (≈ 0.24 µM) with OFX-R.

Regarding `[O-][n+]1nc(N2CC3CCCC3C2)[n+]([O-])c2cc3c(cc21)CCC3` (stereo not shown) [Cmpd 10], the viability at 0.01 ug/ml in series [3] amounted to 103%. The viability at 0.1 ug/ml in [3] worked out at 94%. Moreover, the viability at 1 ug/ml in series [3] amounted to 107%. For the same compound, the minimum inhibitory concentration (MIC) turned out to be 0.391 mg/L (≈ 1.25 µM) with INH-r, 0.391 mg/L (≈ 1.25 µM) with H37Rv, 0.098 mg/L (≈ 0.314 µM) against RMP-R and 0.195 mg/L (≈ 0.624 µM) in the series on OFX-R.

Regarding `O=C1CN(/N=C/c2ccc([N+](=O)[O-])o2)C(=O)N1` [Nitrofurantoin, reference compound], the “Vero Tox CC50” value in the series on Vero cells was found to be 23 mg/L. Further, the MIC is 32 mg/L (≈ 134 µM) in the series with NRP Mtb H37Rv cells; 28 mg/L (≈ 118 µM) in the series on Mtb H37Rv [1]; 16 mg/L (≈ 67.2 µM) in the series on Mtb H37Rv [2] (Tables 1-4 and text).
